Experimental data from patent US20060069132A1, “Azolecarboxamide herbicides” (priority 2004, published 2006).

Experiments:
barnyardgrass [1] = experiment: Test B pre-/postemergence herbicide test; format: in vivo, Echinochloa crus-galli; details: for Barnyardgrass plant response rating: Postemergence, scale 0 (no effect) to 100 (complete control)
In short: (§1)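 Visual rating, 0 (no effect) to 100 (complete control), versus untreated controls after 13–15 d in greenhouse. Pre- and postemergence applications (postemergence plants 2–18 cm, 1–4 leaves); flooded paddy arm at 2-leaf stage. Compounds in non-phytotoxic solvent plus surfactant.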

Surinam grass = experiment: Test B pre-/postemergence herbicide test; format: in vivo, Urochloa decumbens
In short: as §1

cocklebur = experiment: Test B pre-/postemergence herbicide test; format: in vivo, Xanthium strumarium
In short: as §1

corn = experiment: Test B pre-/postemergence herbicide test; format: in vivo, Zea mays
In short: as §1

large crabgrass = experiment: Test B pre-/postemergence herbicide test; format: in vivo, Digitaria sanguinalis
In short: as §1

giant foxtail = experiment: Test B pre-/postemergence herbicide test; format: in vivo, Setaria faberi
In short: as §1

lambsquarters = experiment: Test B pre-/postemergence herbicide test; format: in vivo, Chenopodium album
In short: as §1

morningglory = experiment: Test B pre-/postemergence herbicide test; format: in vivo, Ipomoea coccinea
In short: as §1

pigweed = experiment: Test B pre-/postemergence herbicide test; format: in vivo, Amaranthus retroflexus
In short: as §1

velvetleaf = experiment: Test B pre-/postemergence herbicide test; format: in vivo, Abutilon theophrasti
In short: as §1

blackgrass = experiment: Test B postemergence herbicide test; format: in vivo, Alopecurus myosuroides
In short: (§2)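 Visual ratings, 0 (no effect) to 100 (complete control), made versus controls after 13–15 d greenhouse. Paddy plants treated at 2-leaf stage; postemergence plants at 1- to 4-leaf stage, 2–18 cm tall.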

wheat = experiment: Test B postemergence herbicide test; format: in vivo, Triticum aestivum; design: key to Wheat plant response rating: 0 = no effect, 100 = complete control
In short: (§3)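 Treated at 2-leaf (paddy) or 1–4-leaf, 2–18 cm (postemergence); greenhouse 13–15 d; visual score vs control, 0 none to 100 complete control; dash = not tested.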

wild oat = experiment: Test B postemergence herbicide test; format: in vivo, Avena fatua
In short: as §3

rice [2] = experiment: Test B flooded paddy test; format: in vivo, Oryza sativa; details: 1000 g ai/ha, scale 0 to 100 (0 no effect, 100 complete control)
In short: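 Read-out: visual comparison with controls, scored 0 to 100, where 100 means complete control and 0 no effect. Formulated chemicals were applied postemergence to plants 2–18 cm tall (1- to 4-leaf), or to flooded-paddy plants at the 2-leaf stage, then held 13 to 15 days under glass.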

[3] = system: small flower umbrella sedge; experiment: Test B flooded paddy test; format: in vivo, Cyperus difformis; details: 1000 g ai/ha, scale 0 to 100 (0 no effect, 100 complete control)
In short: as §2

ducksalad [4] = experiment: Test B flooded paddy test; format: in vivo, Heteranthera limosa; details: 1000 g ai/ha, scale 0 to 100 (0 no effect, 100 complete control)
In short: as §2

barnyardgrass [5] = experiment: Test B flooded paddy test; format: in vivo, Echinochloa crus-galli; details: 1000 g ai/ha, scale 0 to 100 (0 no effect, 100 complete control)
In short: as §2

rice [6] = experiment: Test C flooded paddy test; format: in vivo, Oryza sativa
In short: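 Postemergence sprays applied to plants 2 to 18 cm tall (1- to 4-leaf stage); paddy species grown to 2-leaf stage under flooding. After 12 to 14 days in greenhouse, visual rating versus untreated controls on 0–100 scale (0 no effect, 100 complete control).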

[7] = system: smallflower umbrella sedge; experiment: Test C flooded paddy test; format: in vivo, Cyperus difformis
ducksalad [8] = experiment: Test C flooded paddy test; format: in vivo, Heteranthera limosa
barnyardgrass [9] = experiment: Test C flooded paddy test; format: in vivo, Echinochloa crus-galli
In short: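 After a postemergence application at 1 to 4 leaves (plants 2–18 cm high), or at 2 leaves for barnyardgrass in flooded paddy, plants stayed in the greenhouse for 12 to 14 days. Damage was then judged visually relative to control plants, with 100 indicating complete control.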

[10] = 125 g ai/ha, 0 is no effect, 100 is complete control, preemergence
[11] = Postemergence, 500 g ai/ha, scale 0 (no effect) to 100 (complete control)
[12] = postemergence, 125 g ai/ha, scale 0 to 100
[13] = 125 g ai/ha, scale 0 to 100 (0 no effect, 100 complete control)
[14] = 250 g ai/ha, scale of 0 to 100, 0 is no effect, 100 is complete control
[15] = 500 g ai/ha, visual rating after 12 to 14 days, scale 0 to 100 (0 no effect, 100 complete control)

## CCc1nn(C(C)C)nc1C(=S)Nc1cccc(C(=S)N(C)C)c1 [Compound 410]
Barnyardgrass [1]; [10]
  Plant response rating (0 to 100 scale), Barnyardgrass: 100
Barnyardgrass [1]; 125 g ai/ha
  Barnyardgrass plant response rating: 0
Barnyardgrass [1]; 500 g ai/ha
  Barnyardgrass plant response rating: 0
Surinam grass; [10]
  Plant response rating (0 to 100 scale), Surinam Grass: 60
Surinam grass; [11]
  Surinam Grass plant response rating: 0
Surinam grass; [12]
  Surinam Grass plant response rating: 0
cocklebur; [10]
  Plant response rating (0 to 100 scale), Cocklebur: 0
cocklebur; [11]
  Cocklebur plant response rating: 10
cocklebur; [12]
  Cocklebur plant response rating: 0
corn; [10]
  Plant response rating (0 to 100 scale), Corn: 0
corn; [11]
  Corn plant response rating: 10
corn; [12]
  Corn plant response rating: 0
Large crabgrass; [10]
  Plant response rating (0 to 100 scale), Crabgrass, Large: 90
Large crabgrass; [11]
  Crabgrass, Large plant response rating: 20
Large crabgrass; [12]
  Crabgrass, Large plant response rating: 0
Giant foxtail; [10]
  Plant response rating (0 to 100 scale), Foxtail, Giant: 30
Giant foxtail; [11]
  Foxtail, Giant plant response rating: 20
Giant foxtail; [12]
  Foxtail, Giant plant response rating: 10
lambsquarters; [10]
  Plant response rating (0 to 100 scale), Lambsquarters: 100
lambsquarters; [11]
  Lambsquarters plant response rating: 70
lambsquarters; [12]
  Lambsquarters plant response rating: 20
morningglory; [10]
  Plant response rating (0 to 100 scale), Morningglory: 30
morningglory; [11]
  Morningglory plant response rating: 80
morningglory; [12]
  Morningglory plant response rating: 0
pigweed; [10]
  Plant response rating (0 to 100 scale), Pigweed: 60
pigweed; [11]
  Pigweed plant response rating: 70
pigweed; [12]
  Pigweed plant response rating: 0
velvetleaf; [10]
  Plant response rating (0 to 100 scale), Velvetleaf: 30
velvetleaf; [11]
  Velvetleaf plant response rating: 0
velvetleaf; [12]
  Velvetleaf plant response rating: 0
blackgrass; [11]
  Blackgrass plant response rating: 30
blackgrass; [12]
  Blackgrass plant response rating: 10
wheat; 500 g ai/ha, scale 0 to 100, 0 no effect, 100 complete control, preemergence
  Wheat plant response rating: 90
wheat; [11]
  Wheat plant response rating: 10
wheat; [12]
  Wheat plant response rating: 0
Wild oat; [11]
  Oat, Wild plant response rating: 10
Wild oat; [12]
  Oat, Wild plant response rating: 0
Rice [2]
  Rice plant response rating: 60
[3]
  Sedge, Umbrella plant response rating: 80
Ducksalad [4]
  Ducksalad plant response rating: 80
Barnyardgrass [5]
  Barnyardgrass plant response rating: 80
Rice [6]; 62 g ai/ha, scale 0 to 100
  Rice plant response rating: 20
Rice [6]; [13]
  Rice plant response rating: 40
Rice [6]; [14]
  Rice plant response rating: 60
Rice [6]; [15]
  Plant response rating, Rice: 60
[7]; 62 g ai/ha, scale 0 to 100
  Sedge, Umbrella plant response rating: 70
[7]; [13]
  Sedge, Umbrella plant response rating: 75
[7]; [14]
  Sedge, Umbrella plant response rating: 80
[7]; [15]
  Plant response rating, Sedge, Umbrella: 85
Ducksalad [8]; 62 g ai/ha, scale 0 to 100
  Ducksalad plant response rating: 30
Ducksalad [8]; [13]
  Ducksalad plant response rating: 40
Ducksalad [8]; [14]
  Ducksalad plant response rating: 60
Ducksalad [8]; [15]
  Plant response rating, Ducksalad: 60
Barnyardgrass [9]; 62 g ai/ha, scale 0 to 100 (0 no effect, 100 complete control)
  Barnyardgrass plant response rating: 0
Barnyardgrass [9]; [13]
  Barnyardgrass plant response rating: 20
Barnyardgrass [9]; [14]
  Barnyardgrass plant response rating: 60
Barnyardgrass [9]; [15]
  Plant response rating, Barnyardgrass: 65
